One series has as its target T1, PI3KC3 (Homo sapiens, UniProt Q8NEB9).
T1 construct: purchased Reaction Biology Corp
Nature of the series: Kinase panel assay (lipid kinase). It is filed as biochemical. The following applies: control PIK-93. How it is done: (§1) Every inhibitory activity of tested compounds was measured by radiolabelled method of Reaction Biology Corp). The radiolabelled ATP ([γ-^33P] ATP) replaced a substrate with ^33P-phosphorylated substrate so that the activity of a kinase was measured from the radiolabelled phosphorylated substrate. Kinase panel assay was tested at 30 μM testing compounds with an ATP concentration of 10 μM and a substrate concentration of 10 μM. % Residual activity against GSK3β was measured at 10 uM compounds 1 and 2. […] Curve fits of control compounds were performed where the enzyme activities at the highest concentration of compounds were less than 65%. The concentration of DMSO was controlled and raw data, % kinase activity was calculated relative to DMSO controls.

A further series deals with T2, PI4K2A (Homo sapiens, UniProt Q9BTU6).
T2 construct: purchased Reaction Biology Corp
As to the kind of experiment: Kinase panel assay (lipid kinase). The following applies: control PIK-93. It is filed as biochemical. How it is done:
as §1

A further series has as its target T3, PIP5K1A (Homo sapiens, UniProt Q99755).
T3 construct: purchased Reaction Biology Corp
As to the kind of experiment: Kinase panel assay (lipid kinase). The note with it: control PIK-93. The class given is biochemical. How it is done:
as §1

In another series the target is T4, PIP5K1C (Homo sapiens, UniProt O60331).
T4 construct: purchased Reaction Biology Corp
As to the kind of experiment: Kinase panel assay (lipid kinase). It is filed as biochemical. The following applies: control PIK-93. How it is done: as §1

The test system of series [1] is NO production in LPS-activated BV-2 cells. As to the kind of experiment: NO production assay (Griess) in LPS-activated BV-2 cells. It is filed as cell-based, murine. The note with it: read-out: NO Inhibition IC50. How it is done:
(§2) 3-(4,5-dimethylthiazol-2-yl)-2,5-diphenyl-tetrazolium bromide (MTT) assay was performed to evaluate the cytotoxicity of the samples to the microglia. BV2 cells at the density of 4 × 10^4 cells /well were seeded in the 96 well plate and incubated for 24 h. Seeded cells were pre-treated with different concentration of the samples, and LPS (100 ng/ml) activation was performed after 30 min of compound treatment. Treated plate were incubated for 24 h in the incubator and nitric oxide assay and cell viability assay was performed. Treated cell’s conditioned medium was used to evaluate the NO assay, and the attached cells were used to evaluate the cell viability assay. 50 µL of conditioned medium (CM) from treated cells were transferred to a new 96 well plate for NO assay. This CM was mixed with the equal volume of the mixture of Gries reagent ((1% sulfanilamide and 0.1% N-1-napthylethylenediamine dihydrochloride). NaNO2 was used as standard and the colorimetric change were evidenced by measuring its OD at 540 nm in a microplate reader. The cells in the plate were incubated for 1 h with MTT solution making it the final concentration of […]. Blue stained cells were incubated with 200 ul of DMSO and the solution get changed to purple/formazan color and it was observed by measuring the absorbance at 570 nm in a microplate reader.NG-mono-methyl-L-arginine (L-NMMA), a well-known nitric oxide synthase (NOS) inhibitor, was used as a positive control.

In the next series the target is GSK3β (Homo sapiens, UniProt P49841). Nature of the series: GSK3β radiolabelled kinase assay (% residual activity, IC50, ATP competition). The class given is biochemical. The following applies: at 10 μM compound.
A further series relates to BV-2 cells. Nature of the series: MTT cell viability assay. The class given is cell-based, murine. The note with it: 5 μM compound, % of LPS, mean ± SD. The protocol:
as §2
(Tetrazolium assays rely on reduction of a dye to a coloured formazan, in cell work by metabolically active cells.)

Another series has as its system COX-2. Nature of the series: Western blot of COX-2 in LPS-induced BV-2 cells. It is filed as cell-based, murine. The following applies: 0.01 to 1 uM. The protocol: (§3) Western blot analysis was performed to see the protein expression of the iNOS and COX-2 in the BV2 cells. BV2 cells were seeded in a 6 well plate at the density of 6 × 10^5 cells/well overnight and cells were treated as mentioned earlier in the cell treatment section and this time treatment was performed for 6 h only. After 6 h, cells were harvested and lysed with lysis buffer containing (RIPA, protease inhibitor & phosphatase inhibitor), protein estimation was performed using biorad assay and the 30 µg of total protein was separated by 8% SDS-PAGE gel electrophoresis, transferred to nitrocellulose membranes, and incubated with primary antibodies against tubulin, iNOS, COX-2, and α-tubulin. […] membranes were incubated with horseradish peroxidase-conjugated secondary antibodies, and protein bands were visualized using ECL Western Blotting Detection Reagents (Amersham Pharmacia Biotech). Quantitative analysis of the protein bands was quantified using Image Master 2D Elite software (version 3.1, Amersham Pharmacia Biotech).
For orientation: In western blotting, separated proteins are transferred to a membrane and probed.

A short description of a further series: MTT cell viability assay. It is filed as cell-based, murine. The note with it: mouse, BV-2 microglia cells (LPS-activated), mean ± SD. How it is done:
as §2

Another series concerns iNOS. Nature of the series: Western blot of iNOS in LPS-induced BV-2 cells. It is filed as cell-based, murine. The following applies: 0.01 to 1 uM, LPS-induced BV-2 cells. The protocol:
as §3

The next series addresses T5, PDK1/PDHK1 (Homo sapiens, UniProt Q15118).
T5 construct: purchased Reaction Biology Corp
Nature of the series: Kinase panel assay (radiolabelled). It is filed as biochemical. The note with it: control GW5074. How it is done:
as §1

The target in the next series is T6, PDK4/PDHK4 (Homo sapiens, UniProt Q16654).
T6 construct: purchased Reaction Biology Corp
As to the kind of experiment: Kinase panel assay (radiolabelled). It is filed as biochemical. The note with it: control GW5074. The protocol: as §1

Another series addresses T7, PDK2/PDHK2 (Homo sapiens, UniProt Q15119).
T7 construct: purchased Reaction Biology Corp
Nature of the series: Kinase panel assay (radiolabelled). It is filed as biochemical. The following applies: control GW5074. The protocol:
as §1

The next series concerns the target T8, PDK3/PDHK3 (Homo sapiens, UniProt Q15120).
T8 construct: purchased Reaction Biology Corp
Nature of the series: Kinase panel assay (radiolabelled). The following applies: control GW5074. The class given is biochemical. How it is done:
as §1

The target of another series is T9, PI3KC2A (Homo sapiens, UniProt O00443).
T9 construct: purchased Reaction Biology Corp
Nature of the series: Kinase panel assay (lipid kinase). The class given is biochemical. The note with it: read-out: IC50 (M) of Control (+). How it is done: as §1

In the next series the target is T10, TRPM7/CHAK1 (Homo sapiens, UniProt Q96QT4).
T10 construct: purchased Reaction Biology Corp
Nature of the series: Kinase panel assay (radiolabelled). The class given is biochemical. The note with it: control NH125. How it is done: as §1

Read-outs that look alike come from different tables or passages of the source.

GSK3β, sequence (P49841 whole entry): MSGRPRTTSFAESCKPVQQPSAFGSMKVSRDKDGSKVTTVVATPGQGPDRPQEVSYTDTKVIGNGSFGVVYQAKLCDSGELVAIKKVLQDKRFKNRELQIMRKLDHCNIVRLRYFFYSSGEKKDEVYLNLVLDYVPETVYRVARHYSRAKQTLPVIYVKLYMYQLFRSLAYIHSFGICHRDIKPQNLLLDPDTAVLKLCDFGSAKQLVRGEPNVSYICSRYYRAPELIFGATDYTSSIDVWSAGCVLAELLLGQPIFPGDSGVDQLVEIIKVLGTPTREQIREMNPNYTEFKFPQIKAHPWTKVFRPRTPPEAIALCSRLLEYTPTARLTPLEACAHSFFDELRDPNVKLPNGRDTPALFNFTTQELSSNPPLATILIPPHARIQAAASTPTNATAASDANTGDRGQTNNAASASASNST
T2 sequence (Q9BTU6 whole entry): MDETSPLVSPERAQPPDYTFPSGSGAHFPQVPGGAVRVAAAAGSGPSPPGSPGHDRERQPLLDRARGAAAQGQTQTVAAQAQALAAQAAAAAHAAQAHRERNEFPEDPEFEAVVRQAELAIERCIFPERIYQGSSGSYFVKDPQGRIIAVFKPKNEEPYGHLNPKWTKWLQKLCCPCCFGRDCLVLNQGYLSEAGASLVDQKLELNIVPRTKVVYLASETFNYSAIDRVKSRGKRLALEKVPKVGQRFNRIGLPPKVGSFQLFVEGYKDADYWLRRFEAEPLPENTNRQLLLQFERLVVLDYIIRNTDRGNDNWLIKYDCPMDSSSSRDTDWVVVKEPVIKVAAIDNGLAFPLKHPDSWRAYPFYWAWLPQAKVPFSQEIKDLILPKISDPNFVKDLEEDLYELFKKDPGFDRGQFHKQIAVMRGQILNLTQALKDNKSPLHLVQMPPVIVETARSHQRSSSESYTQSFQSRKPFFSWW
T1 sequence (Q8NEB9 whole entry): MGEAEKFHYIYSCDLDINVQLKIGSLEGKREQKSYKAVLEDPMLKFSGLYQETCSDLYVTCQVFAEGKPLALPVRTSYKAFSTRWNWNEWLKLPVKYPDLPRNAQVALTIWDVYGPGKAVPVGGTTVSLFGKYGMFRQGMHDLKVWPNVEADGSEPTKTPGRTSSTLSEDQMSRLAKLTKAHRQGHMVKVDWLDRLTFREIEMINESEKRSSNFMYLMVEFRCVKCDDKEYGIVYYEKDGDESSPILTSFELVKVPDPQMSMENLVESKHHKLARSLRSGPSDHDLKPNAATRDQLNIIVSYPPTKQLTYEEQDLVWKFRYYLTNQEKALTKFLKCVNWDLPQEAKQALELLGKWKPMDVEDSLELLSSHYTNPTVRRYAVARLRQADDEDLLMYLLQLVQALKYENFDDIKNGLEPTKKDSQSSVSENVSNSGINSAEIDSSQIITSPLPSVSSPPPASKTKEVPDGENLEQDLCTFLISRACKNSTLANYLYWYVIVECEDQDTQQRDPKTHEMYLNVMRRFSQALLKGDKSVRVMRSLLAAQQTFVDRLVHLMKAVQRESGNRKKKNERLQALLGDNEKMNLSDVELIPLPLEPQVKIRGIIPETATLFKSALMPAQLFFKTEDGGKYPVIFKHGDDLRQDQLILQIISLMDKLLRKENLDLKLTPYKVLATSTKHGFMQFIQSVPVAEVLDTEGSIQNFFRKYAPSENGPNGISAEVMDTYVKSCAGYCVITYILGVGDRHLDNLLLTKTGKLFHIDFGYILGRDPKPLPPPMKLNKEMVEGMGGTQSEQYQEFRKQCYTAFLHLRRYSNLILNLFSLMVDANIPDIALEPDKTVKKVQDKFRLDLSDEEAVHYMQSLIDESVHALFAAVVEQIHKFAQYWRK
T5 sequence (Q15118 29-436): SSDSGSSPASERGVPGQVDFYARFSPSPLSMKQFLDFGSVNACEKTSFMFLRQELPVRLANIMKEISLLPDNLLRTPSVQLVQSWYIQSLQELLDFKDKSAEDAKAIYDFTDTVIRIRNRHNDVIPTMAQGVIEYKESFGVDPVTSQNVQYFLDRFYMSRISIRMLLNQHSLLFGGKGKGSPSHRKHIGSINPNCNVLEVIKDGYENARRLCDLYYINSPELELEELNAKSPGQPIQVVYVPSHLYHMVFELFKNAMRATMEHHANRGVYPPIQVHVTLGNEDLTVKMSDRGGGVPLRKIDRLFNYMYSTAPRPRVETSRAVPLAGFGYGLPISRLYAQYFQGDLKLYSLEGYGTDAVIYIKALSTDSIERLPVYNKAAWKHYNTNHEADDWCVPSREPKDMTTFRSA
T3 sequence (Q99755 whole entry): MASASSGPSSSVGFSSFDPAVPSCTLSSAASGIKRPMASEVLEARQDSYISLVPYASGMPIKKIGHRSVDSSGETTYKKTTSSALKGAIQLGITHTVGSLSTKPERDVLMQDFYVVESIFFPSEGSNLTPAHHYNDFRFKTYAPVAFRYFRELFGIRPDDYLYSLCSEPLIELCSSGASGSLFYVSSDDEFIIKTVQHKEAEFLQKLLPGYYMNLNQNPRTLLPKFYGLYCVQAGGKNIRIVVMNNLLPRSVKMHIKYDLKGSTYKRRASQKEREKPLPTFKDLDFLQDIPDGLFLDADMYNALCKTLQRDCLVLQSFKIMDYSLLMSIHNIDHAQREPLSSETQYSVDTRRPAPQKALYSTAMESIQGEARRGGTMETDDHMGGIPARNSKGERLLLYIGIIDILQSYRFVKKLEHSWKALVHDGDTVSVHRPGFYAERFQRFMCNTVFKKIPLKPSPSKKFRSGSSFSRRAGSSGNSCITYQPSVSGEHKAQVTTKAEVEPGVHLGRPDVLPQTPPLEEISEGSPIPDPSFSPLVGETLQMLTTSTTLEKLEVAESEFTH
T4 sequence (O60331 whole entry): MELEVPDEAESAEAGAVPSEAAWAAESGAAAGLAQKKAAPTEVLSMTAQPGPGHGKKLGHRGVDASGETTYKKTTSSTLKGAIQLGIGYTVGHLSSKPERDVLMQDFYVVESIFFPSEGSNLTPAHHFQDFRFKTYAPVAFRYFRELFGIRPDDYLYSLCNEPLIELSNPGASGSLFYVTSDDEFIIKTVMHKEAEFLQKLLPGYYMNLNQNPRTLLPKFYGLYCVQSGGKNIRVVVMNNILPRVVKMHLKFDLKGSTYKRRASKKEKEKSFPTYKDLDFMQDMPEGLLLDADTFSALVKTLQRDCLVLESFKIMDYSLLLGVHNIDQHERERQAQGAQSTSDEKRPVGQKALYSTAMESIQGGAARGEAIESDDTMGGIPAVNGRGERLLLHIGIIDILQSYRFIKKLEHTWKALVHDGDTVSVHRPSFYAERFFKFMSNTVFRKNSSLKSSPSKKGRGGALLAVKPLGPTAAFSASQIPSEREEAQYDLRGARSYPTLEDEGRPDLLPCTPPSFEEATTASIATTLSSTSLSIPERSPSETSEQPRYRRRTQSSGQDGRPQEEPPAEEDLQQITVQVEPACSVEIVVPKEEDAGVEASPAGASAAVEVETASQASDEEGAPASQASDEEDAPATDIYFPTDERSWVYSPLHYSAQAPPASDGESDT
T8 sequence (Q15120 whole entry): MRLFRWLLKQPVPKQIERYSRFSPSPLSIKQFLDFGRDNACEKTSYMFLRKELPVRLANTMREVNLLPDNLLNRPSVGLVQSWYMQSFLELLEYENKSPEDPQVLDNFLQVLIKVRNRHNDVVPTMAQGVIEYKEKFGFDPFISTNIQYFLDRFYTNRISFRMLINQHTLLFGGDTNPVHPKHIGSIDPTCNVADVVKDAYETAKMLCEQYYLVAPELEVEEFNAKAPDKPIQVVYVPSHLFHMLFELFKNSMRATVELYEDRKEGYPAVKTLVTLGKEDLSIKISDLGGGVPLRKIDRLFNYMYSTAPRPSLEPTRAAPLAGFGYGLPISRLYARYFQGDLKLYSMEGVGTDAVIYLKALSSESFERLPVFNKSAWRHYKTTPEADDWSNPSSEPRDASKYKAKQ
T6 sequence (Q16654 whole entry): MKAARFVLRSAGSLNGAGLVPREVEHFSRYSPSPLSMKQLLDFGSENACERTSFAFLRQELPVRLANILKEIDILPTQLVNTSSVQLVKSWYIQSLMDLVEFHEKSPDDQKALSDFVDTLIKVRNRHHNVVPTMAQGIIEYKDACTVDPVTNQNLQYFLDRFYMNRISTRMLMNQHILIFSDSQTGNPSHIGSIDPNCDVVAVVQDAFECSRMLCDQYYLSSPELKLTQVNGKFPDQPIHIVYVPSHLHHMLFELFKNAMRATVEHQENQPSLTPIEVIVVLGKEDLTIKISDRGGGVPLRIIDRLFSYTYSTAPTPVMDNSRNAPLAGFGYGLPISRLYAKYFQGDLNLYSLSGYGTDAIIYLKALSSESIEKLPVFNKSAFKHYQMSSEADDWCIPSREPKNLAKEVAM

Usually IC50 stands for the concentration at which inhibition is half-maximal. With `CC(=O)Nc1nc(C)c(-c2ccc(Cl)c(S(=O)(=O)NCCO)c2)s1` [PIK-93, reference compound], the IC50 on PI3KC3 was 0.0757 µM; against PI4K2A it was 18.5 µM; against PIP5K1A, 61.8 µM; at PIP5K1C, 17.5 µM.

With `O=C1C=CC2(C=C1)OCC(Cc1ccccc1CS(=O)(=O)c1ccccc1)C(=O)N2c1ccccc1` (stereo not shown) [1b], the IC50 in [1] came out at 0.98 ± 0.03 µM. Further, the “% GSK3β Residual Activity” value at GSK3β came out at 91.0 ± 12.6%. The “Cell Viability (%)” value in the series with BV-2 cells was found to be 84 ± 3%.

One may read the remaining activity as the activity still measured, relative to the control. Usually viability stands for a per cent measure of how many cells are alive, often set against a control. Lower therefore signals more harm to the cells. Turning to `O=C1C=CC2(C=C1)OCC(Cc1cn(-c3ccccc3)nn1)C(=O)N2c1ccccc1` (stereo not shown) [2a, 5-Phenyl-3-((1-phenyl-1H-1,2,3-triazol-4-yl)methyl)-1-oxa-5-azaspiro[5.5]undeca-7,10-diene-4,9-dione], the IC50 in series [1] (Mus musculus) is 0.67 ± 0.05 µM. The molecule further had a remaining activity at 10 µM at GSK3β of 62.3 ± 2.3%. Besides, in the series with COX-2, the “COX-2 expression level” value is “limited potency and efficacy”. In “MTT cell viability assay” (1 μM compound), the viability at 24 h, 1 µM was determined as 92.9 ± 0.24%. The viability at 24 h, 5 µM in “MTT cell viability assay” (5 μM compound, % of LPS) came out at 81 ± 3%. The “iNOS expression level” value with iNOS was “limited potency and efficacy”.

For the molecule `O=C1Nc2ccc(I)cc2/C1=C/c1cc(Br)c(O)c(Br)c1` [GW5074, reference compound], the IC50 against PDK1/PDHK1 worked out at 12.1 µM; at PDK4/PDHK4, 2.12 µM; at PDK2/PDHK2, 3.28 µM; on PDK3/PDHK3 it was 1.82 µM.

For the molecule `Oc1cccc(-c2nc(N3CCOCC3)c3oc4ncccc4c3n2)c1` [PI-103, reference compound], the IC50 on PI3KC2A came to 4.8e-07 M.

For the molecule `CCCCCCCCCCCCCCCCn1cc[n+](Cc2ccccc2)c1C` [NH125, reference compound], at TRPM7/CHAK1, the IC50 amounted to 5.86 µM.
